{"source": "patent US9809861B2", "about": "“Method of evaluating inhibitory effect on damp-dry malodor” (Kao Corporation, priority 2012, dated 2017)", "key": {"fadB gene": {"system": "fadB gene", "experiment": "Change in expression amount of fadB gene in the presence of test substance (real time PCR)", "format": "cell-based, Moraxella sp. KMC4-1", "conditions": "for Change in the expression amount of fadB gene: Substance (1) 10 ppm, (2)(3)(5)(6) 100 ppm, (4) 500 ppm; for expression amount of the fadB gene by the microorganisms: summary of Table 12", "protocol": "(§1) The substances (1) to (7) described below each were added to 4 mL SCD liquid medium (manufactured by NIHON PHARMACEUTICAL CO., LTD). As a control, a medium system not added with any test substance was also prepared. To these medium, one platinum loop of precultured Moraxella sp. KMC4-1 was inoculated and cultured for 24 hours at 35 C while shaking (160 rpm).\n(§2) To the cell liquid cultured for 24 hours, 10 mg of 16-methyloctadecanoic acid was added as a sebaceous dirt component. After culturing again for 6 hours at 35° C., the cells were collected. As a control, a system not added with a sebaceous dirt component was also cultured and cells were collected therefrom.\n(§3) An RNA sample was prepared from the collected cells in the same manner as in the test example 1.\n(§4) Reaction solutions for real time PCR were prepared in the same manner as above, except that, instead of the primer set including the primer containing the oligonucleotide having the base sequence set forth in SEQ ID NO: 13 and the primer containing the oligonucleotide having the base sequence set forth in SEQ ID NO: 14, the primer set described in Tables 11 to 13 was used.\n(§5) The reaction solutions for real time PCR each were subjected to a gene amplification by using an automatic gene amplification thermal cycler DICE Real time system II (manufactured by Takara Bio Inc.), and then the expression amount of each of the fatty acid desaturase gene (the Δ9desaturase gene) and the β oxidation-relating enzyme genes (the fadB gene and the fadD gene) was measured. PCR reaction conditions were 40 cycles of (i) a thermal denaturation reaction at 95° C. for 20 seconds, and (ii) an annealing reaction and an elongation reaction at 60° C. for 30 seconds.\n(§6) By having the gene expression of 16S rRNA as an internal standard, and having the gene expression amount when adding no sebaceous dirt component and no test substance as a reference value, change in expression amount of each gene was calculated relative to the reference value. A sample, in which the expression amount of the gene was ½ times or less the reference value, was rated as “A”; a sample, in which the expression amount of the gene was more than ½ times and ⅔ times or less the reference value, was rated as “B”; and a sample, in which the expression amount of the gene was more than ⅔ times the reference value, was rated as “C”."}, "fadD gene": {"system": "fadD gene", "experiment": "Change in expression amount of fadD gene in the presence of test substance (real time PCR)", "format": "cell-based, Moraxella sp. KMC4-1", "conditions": "for Change in the expression amount of fadD gene: Substance (1) 10 ppm, (2)(3)(5)(6) 100 ppm, (4) 500 ppm; for expression amount of the fadD gene by the microorganisms: summary of Table 13", "protocol": "as §1, §2, §3, §4, §5, §6"}, "Moraxella sp. KMC4-1 [1]": {"system": "Moraxella sp. KMC4-1", "experiment": "Sensory evaluation of inhibitory effect on damp-dry malodor on model examination cloth", "format": "cell-based", "conditions": "summary of Table 14", "protocol": "Subsequently, by using Moraxella sp. KMC4-1, which is one kind of the microorganisms which produce damp-dry malodor-causing substances, sensory evaluation of the inhibitory effect on damp-dry malodor by the test substance and measurement of production amount of 4M3H as one kind of the damp-dry malodor-causing substances were carried out.\nMoraxella sp. KMC4-1 was inoculated as a test microbe onto SCD-LP agar medium (manufactured by Wako Pure Chemical Industries, Ltd.) and cultured for 1 to 2 weeks at room temperature to give a pre-culture plate. Colony surface was scraped off from the pre-culture plate, suspended in 5 mL of physiological saline, and OD600 was adjusted to 1.0 (about 10^8 CFU/mL).\nA cotton jersey cloth obtained in a constant state after sterilization and drying at 25° C., 40% RH (cotton jersey manufactured by Shikisensha Colo., LTD., without silket finish) was cut to a square of 2 cm×2 cm. To the cloth, a solution prepared by dissolving 0.5 mg of 14-methylhexadecanoic acid, as a sebaceous dirt component, in 0.1 mL methanol, was applied. Then, methanol was dried to solid, to give a model examination cloth.\nMethanol solution was prepared for each test substance and applied at 20° C. on the model examination cloth such that applied amount of each test substance was […] per gram of the model examination cloth. It was then dried for 2 hours at room temperature to dry methanol. Thereafter, 0.1 mL of the microbe suspension was coated onto the model examination cloth, and cultured for 24 hours in a petri dish using an incubator at 37° C. with relative humidity of 70%, to obtain a microbe-fixed cloth.\nThe sensory test of the model examination cloth was evaluated by a professional panel who can distinguish different subjects based on the damp-dry malodor. A sample, in which an inhibitory effect on damp-dry malodor was confirmed, was rated as “A”; a sample, in which it was difficult to determine the inhibitory effect on damp-dry malodor or a Weak inhibitory effect on damp-dry malodor was confirmed, was rated as “B; and a sample, in which no inhibitory effect on damp-dry malodor was confirmed, was rated as “C”."}, "Moraxella sp. KMC4-1 [2]": {"system": "Moraxella sp. KMC4-1", "experiment": "Bactericidal test", "format": "cell-based", "conditions": "10^6 CFU/mL, 2 hours, 25° C.; Substance (1) 10 ppm, (2)(3)(5)(6) 100 ppm, (4) 500 ppm", "protocol": "To 5 mL of a test solution in which the substances (1) to (7) each were added so as to be the final concentration described in Table 15, the precultured Moraxella sp. KMC4-1 was inoculated so as to be the concentration of 10^6 CFU/mL and cultured for 2 hours at 25° C. while shaking (160 rpm). After that, it was subjected to serial dilution using LP dilution solution (NIHON PHARMACEUTICAL CO., LTD). Then, by using SCD-LP agar medium (NIHON PHARMACEUTICAL CO., LTD), the number of bacteria remained alive was determined.\nAs for the growth-inhibitory and the bactericidal effect, the evaluation was made as follows: compared to the control, when there was the bacteria number decrease of log 3 or more, it was rated as “A”; when there was the bacteria number decrease of log 1 or more but less than log 3, it was rated as “B”; and when there was the bacteria number decrease of less than log 1, it was rated as “C”."}}}
{"smiles": "CCCCCCCCCC=O", "note": "[Substance (1)]", "values": [{"measurement": "Change in the expression amount of fadB gene", "setting": "fadB gene; primers SEQ ID NO: 25 / 26", "result": "C (the expression amount of the gene was more than ⅔ times the reference value)"}, {"measurement": "Change in the expression amount of fadB gene", "setting": "fadB gene; primers SEQ ID NO: 27 / 28", "result": "C (the expression amount of the gene was more than ⅔ times the reference value)"}, {"measurement": "Change in the expression amount of fadB gene", "setting": "fadB gene; primers SEQ ID NO: 29 / 30", "result": "C (the expression amount of the gene was more than ⅔ times the reference value)"}, {"measurement": "Change in the expression amount of fadB gene", "setting": "fadB gene; primers SEQ ID NO: 31 / 32", "result": "C (the expression amount of the gene was more than ⅔ times the reference value)"}, {"measurement": "Change in the expression amount of fadD gene", "setting": "fadD gene; primers SEQ ID NO: 35 / 36", "result": "A (the expression amount of the gene was ½ times or less the reference value)"}, {"measurement": "Change in the expression amount of fadD gene", "setting": "fadD gene; primers SEQ ID NO: 41 / 42", "result": "A (the expression amount of the gene was ½ times or less the reference value)"}, {"measurement": "expression amount of the fadD gene by the microorganisms", "setting": "fadD gene", "result": "decreased"}, {"measurement": "inhibitory effect on damp-dry malodor", "setting": "Moraxella sp. KMC4-1 [1]", "result": "an inhibitory effect on damp-dry malodor was observed"}, {"measurement": "Bactericidal effect", "setting": "Moraxella sp. KMC4-1 [2]", "result": "C (the bacteria number decrease of less than log 1)"}]}
{"smiles": "CC(=O)OC(C)(C)Cc1ccccc1", "note": "[Substance (2)]", "values": [{"measurement": "Change in the expression amount of fadB gene", "setting": "fadB gene; primers SEQ ID NO: 25 / 26", "result": "A (the expression amount of the gene was ½ times or less the reference value)"}, {"measurement": "Change in the expression amount of fadB gene", "setting": "fadB gene; primers SEQ ID NO: 27 / 28", "result": "A (the expression amount of the gene was ½ times or less the reference value)"}, {"measurement": "Change in the expression amount of fadB gene", "setting": "fadB gene; primers SEQ ID NO: 29 / 30", "result": "A (the expression amount of the gene was ½ times or less the reference value)"}, {"measurement": "Change in the expression amount of fadB gene", "setting": "fadB gene; primers SEQ ID NO: 31 / 32", "result": "A (the expression amount of the gene was ½ times or less the reference value)"}, {"measurement": "expression amount of the fadB gene by the microorganisms", "setting": "fadB gene", "result": "decreased"}, {"measurement": "Change in the expression amount of fadD gene", "setting": "fadD gene; primers SEQ ID NO: 35 / 36", "result": "A (the expression amount of the gene was ½ times or less the reference value)"}, {"measurement": "Change in the expression amount of fadD gene", "setting": "fadD gene; primers SEQ ID NO: 41 / 42", "result": "A (the expression amount of the gene was ½ times or less the reference value)"}, {"measurement": "expression amount of the fadD gene by the microorganisms", "setting": "fadD gene", "result": "decreased"}, {"measurement": "inhibitory effect on damp-dry malodor", "setting": "Moraxella sp. KMC4-1 [1]", "result": "an inhibitory effect on damp-dry malodor was observed"}, {"measurement": "Bactericidal effect", "setting": "Moraxella sp. KMC4-1 [2]", "result": "C (the bacteria number decrease of less than log 1)"}]}
{"smiles": "CNc1ccccc1C(=O)OC", "note": "[Substance (3)]", "values": [{"measurement": "Change in the expression amount of fadB gene", "setting": "fadB gene; primers SEQ ID NO: 25 / 26", "result": "A (the expression amount of the gene was ½ times or less the reference value)"}, {"measurement": "Change in the expression amount of fadB gene", "setting": "fadB gene; primers SEQ ID NO: 27 / 28", "result": "A (the expression amount of the gene was ½ times or less the reference value)"}, {"measurement": "Change in the expression amount of fadB gene", "setting": "fadB gene; primers SEQ ID NO: 29 / 30", "result": "A (the expression amount of the gene was ½ times or less the reference value)"}, {"measurement": "Change in the expression amount of fadB gene", "setting": "fadB gene; primers SEQ ID NO: 31 / 32", "result": "B (the expression amount of the gene was more than ½ times and ⅔ times or less the reference value)"}, {"measurement": "expression amount of the fadB gene by the microorganisms", "setting": "fadB gene", "result": "decreased"}, {"measurement": "Change in the expression amount of fadD gene", "setting": "fadD gene; primers SEQ ID NO: 35 / 36", "result": "A (the expression amount of the gene was ½ times or less the reference value)"}, {"measurement": "Change in the expression amount of fadD gene", "setting": "fadD gene; primers SEQ ID NO: 41 / 42", "result": "A (the expression amount of the gene was ½ times or less the reference value)"}, {"measurement": "expression amount of the fadD gene by the microorganisms", "setting": "fadD gene", "result": "decreased"}, {"measurement": "inhibitory effect on damp-dry malodor", "setting": "Moraxella sp. KMC4-1 [1]", "result": "an inhibitory effect on damp-dry malodor was observed"}, {"measurement": "Bactericidal effect", "setting": "Moraxella sp. KMC4-1 [2]", "result": "C (the bacteria number decrease of less than log 1)"}]}
{"smiles": "CCCCCCCC/C=C\\CCCCCCCC(=O)O", "note": "[Substance (4)]", "values": [{"measurement": "Change in the expression amount of fadB gene", "setting": "fadB gene; primers SEQ ID NO: 25 / 26", "result": "A (the expression amount of the gene was ½ times or less the reference value)"}, {"measurement": "Change in the expression amount of fadB gene", "setting": "fadB gene; primers SEQ ID NO: 27 / 28", "result": "A (the expression amount of the gene was ½ times or less the reference value)"}, {"measurement": "Change in the expression amount of fadB gene", "setting": "fadB gene; primers SEQ ID NO: 29 / 30", "result": "A (the expression amount of the gene was ½ times or less the reference value)"}, {"measurement": "Change in the expression amount of fadB gene", "setting": "fadB gene; primers SEQ ID NO: 31 / 32", "result": "A (the expression amount of the gene was ½ times or less the reference value)"}, {"measurement": "expression amount of the fadB gene by the microorganisms", "setting": "fadB gene", "result": "decreased"}, {"measurement": "Change in the expression amount of fadD gene", "setting": "fadD gene; primers SEQ ID NO: 35 / 36", "result": "C (the expression amount of the gene was more than ⅔ times the reference value)"}, {"measurement": "Change in the expression amount of fadD gene", "setting": "fadD gene; primers SEQ ID NO: 41 / 42", "result": "C (the expression amount of the gene was more than ⅔ times the reference value)"}, {"measurement": "inhibitory effect on damp-dry malodor", "setting": "Moraxella sp. KMC4-1 [1]", "result": "an inhibitory effect on damp-dry malodor was observed"}, {"measurement": "Bactericidal effect", "setting": "Moraxella sp. KMC4-1 [2]", "result": "C (the bacteria number decrease of less than log 1)"}]}
{"smiles": "O=C[C@H](O)[C@@H](O)[C@H](O)[C@H](O)CO", "note": "[Substance (5)]", "values": [{"measurement": "Change in the expression amount of fadB gene", "setting": "fadB gene; primers SEQ ID NO: 25 / 26", "result": "C (the expression amount of the gene was more than ⅔ times the reference value)"}, {"measurement": "Change in the expression amount of fadB gene", "setting": "fadB gene; primers SEQ ID NO: 27 / 28", "result": "C (the expression amount of the gene was more than ⅔ times the reference value)"}, {"measurement": "Change in the expression amount of fadB gene", "setting": "fadB gene; primers SEQ ID NO: 29 / 30", "result": "C (the expression amount of the gene was more than ⅔ times the reference value)"}, {"measurement": "Change in the expression amount of fadB gene", "setting": "fadB gene; primers SEQ ID NO: 31 / 32", "result": "C (the expression amount of the gene was more than ⅔ times the reference value)"}, {"measurement": "Change in the expression amount of fadD gene", "setting": "fadD gene; primers SEQ ID NO: 35 / 36", "result": "C (the expression amount of the gene was more than ⅔ times the reference value)"}, {"measurement": "Change in the expression amount of fadD gene", "setting": "fadD gene; primers SEQ ID NO: 41 / 42", "result": "C (the expression amount of the gene was more than ⅔ times the reference value)"}, {"measurement": "Bactericidal effect", "setting": "Moraxella sp. KMC4-1 [2]", "result": "C (the bacteria number decrease of less than log 1)"}]}
